Reference: US11231421B2, “Methods of treating multifocal cancer” (NYMOX CORPORATION, priority 2019, dated 2022)
Where no end group is shown, it is not given here.

Tests used:
[1] = tested on: low grade prostate cancer (Gleason grade 6); assay: Clinical study, Example 3: hemi-prostate multifocal cancer with Gleason upgrade; assay type: in vivo, human; details: for % Imp.: hemi-prostate multifocal cancer with Gleason upgrade: vs control active surveillance
Method: (§1) In a series of clinical studies a total of 146 men with low grade prostate cancer (Gleason grade 6) were treated in the following manner. Patients were randomized and treated with a transrectal intraprostatic single injection of a composition comprising 2.5 mg FT (n=49), or a composition comprising 15 mg FT (n=48), or were subject to control active surveillance (n=49). After the first follow-up biopsy at 45 days post-randomization, 18 patients in the control active surveillance group crossed over to a single administration of a composition in which 10 patients received 2.5 mg FT, and 8 patients received 15 mg FT. Patients were followed for 5 years including biopsies at baseline, 45 days, 18, 36, and 48 months, and urological evaluations with PSA every 6 months. Patients with Gleason grade increase or who elected surgical or radiotherapeutic intervention exited the study and were still included in the data analysis. Percentage of normal biopsies in the baseline focus quadrant and median tumor grade and volume were assessed; progression was measured by clinical and pathological outcomes including Gleason grade, and Gleason grade primary pattern, in the entire prostate sampled as well as for the treated prostate lobe. Interventions associated with Gleason grade increase as well as total incidence for any conventional surgical intervention (e.g., surgery, radiotherapy, and/or chemotherapy) was assessed.

[2] = tested on: low grade prostate cancer (Gleason grade 6); assay: Clinical study, Example 1: new multifocal with Gleason upgrade in entire prostate; assay type: in vivo, human; details: for % Imp.: new multifocal with Gleason upgrade, entire prostate: vs control active surveillance
Method: as §1

[3] = tested on: low grade prostate cancer (Gleason grade 6); assay: Clinical study, Example 2: new multifocal with increase Gleason primary pattern in entire prostate; assay type: in vivo, human; details: for % Imp.: new multifocal with increase Gleason primary pattern, entire prostate: vs control active surveillance
Method: as §1

[4] = tested on: injected areas; assay: Histology of injected areas after treatment; assay type: in vivo; details: up to several weeks after treatment
Description: (§2) Use of FT is a preferred embodiment. FT is a new molecular entity which in vitro stimulates caspase pathways (activation of caspases 7, 8, and 10, caspase recruitment domains 6, 11, and 14, and DIABLO), tumor necrosis factor pathways (activation of TNF1, TNFSF6, TNFSF8, TNFSF9, CD70 ligands, and TNFRSF19L, TNFRSF25, TRAF2, TRAF3, TRAF4, TRAF6 receptors), and BCL pathways (activation of BIK, HRK, BCL2L10 and BCL3) in prostate glandular epithelial cells, based on tissue culture genetic array data. […] The apoptotic process leads to typical ultrastructural progressive changes of membranous disruption and swelling, progressively deepening nuclear invaginations with eventual membranous bleb formations and cell death and fragmentation into apoptotic bodies.

[5] = tested on: low grade prostate cancer (Gleason grade 6); assay: Clinical study, Example 6: cancer treatment with new multifocal and an increase in Gleason grade primary pattern; assay type: in vivo, human; details: for % Imp.: cancer treatment with new multifocal and an increase in Gleason grade primary pattern, entire prostate: vs control active surveillance
Method: as §1

[6] = tested on: prostate glandular epithelial cells; assay: In vitro tissue culture genetic array and cell effects; assay type: cell-based
Description: as §2

[7] = tested on: low grade prostate cancer (Gleason grade 6); assay: Clinical study, Example 4: hemi-prostate multifocal cancer with increase in Gleason primary pattern; assay type: in vivo, human; details: for % Imp.: hemi-prostate multifocal cancer with increase in Gleason primary pattern: vs control active surveillance
Method: as §1

[8] = FT 2.5 mg, <=18 mos from treatment
[9] = FT 2.5 mg, <=36 mos from treatment
[10] = FT 2.5 mg, <=48 mos from treatment
[11] = FT 15 mg, <=18 mos from treatment
[12] = FT 15 mg, <=36 mos from treatment
[13] = FT 15 mg, <=48 mos from treatment
[14] = Pooled FT (2.5 mg and 15 mg), <=18 mos from treatment
[15] = Pooled FT (2.5 mg and 15 mg), <=18 mos
[16] = Pooled FT (2.5 mg and 15 mg), <=36 mos from treatment
[17] = Pooled FT (2.5 mg and 15 mg), <=36 mos
[18] = Pooled FT (2.5 mg and 15 mg), <=48 mos from treatment
[19] = Pooled FT (2.5 mg and 15 mg), <=48 mos
[20] = in vitro, tissue culture genetic array data

Q: Which results are given for “fexapotide triflutate (IDQQVLSRIKLEIKRCL; also: trifluoroacetate salt) [FT]”?
A: percentage of patients: hemi-prostate multifocal cancer with Gleason upgrade [1, 8]: 8.6%; % Imp.: hemi-prostate multifocal cancer with Gleason upgrade ([1]; FT 2.5 mg, <=18 mos): 54.26%; percentage of patients: hemi-prostate multifocal cancer with Gleason upgrade [1, 9]: 16.7%; % Imp.: hemi-prostate multifocal cancer with Gleason upgrade ([1]; FT 2.5 mg, <=36 mos): 53.2%; percentage of patients: hemi-prostate multifocal cancer with Gleason upgrade [1, 10]: 42.9%; % Imp.: hemi-prostate multifocal cancer with Gleason upgrade ([1]; FT 2.5 mg, <=48 mos): 5.7%; percentage of patients: hemi-prostate multifocal cancer with Gleason upgrade [1, 11]: 5.7%; % Imp.: hemi-prostate multifocal cancer with Gleason upgrade ([1]; FT 15 mg, <=18 mos): 69.7%; percentage of patients: hemi-prostate multifocal cancer with Gleason upgrade [1, 12]: 9.1 (p = 0.049) %; % Imp.: hemi-prostate multifocal cancer with Gleason upgrade ([1]; FT 15 mg, <=36 mos): 74.5%; percentage of patients: hemi-prostate multifocal cancer with Gleason upgrade [1, 13]: 13.3%; % Imp.: hemi-prostate multifocal cancer with Gleason upgrade ([1]; FT 15 mg, <=48 mos): 70.8%; percentage of patients: hemi-prostate multifocal cancer with Gleason upgrade [1, 14]: 7.1%; % Imp.: hemi-prostate multifocal cancer with Gleason upgrade [1, 15]: 62.2%; percentage of patients: hemi-prostate multifocal cancer with Gleason upgrade [1, 16]: 13.0 (p = 0.0549) %; % Imp.: hemi-prostate multifocal cancer with Gleason upgrade [1, 17]: 63.6%; percentage of patients: hemi-prostate multifocal cancer with Gleason upgrade [1, 18]: 27.6%; % Imp.: hemi-prostate multifocal cancer with Gleason upgrade [1, 19]: 39.3%; percentage of patients: new multifocal with Gleason upgrade, entire prostate [2, 8]: 13.5%; % Imp.: new multifocal with Gleason upgrade, entire prostate ([2]; FT 2.5 mg, <=18 mos): 51.4%; percentage of patients: new multifocal with Gleason upgrade, entire prostate [2, 9]: 23.1%; % Imp.: new multifocal with Gleason upgrade, entire prostate ([2]; FT 2.5 mg, <=36 mos): 47.2%; percentage of patients: new multifocal with Gleason upgrade, entire prostate [2, 10]: 50%; % Imp.: new multifocal with Gleason upgrade, entire prostate ([2]; FT 2.5 mg, <=48 mos): 12.4%; percentage of patients: new multifocal with Gleason upgrade, entire prostate [2, 11]: 5.7 (p = 0.025) %; % Imp.: new multifocal with Gleason upgrade, entire prostate ([2]; FT 15 mg, <=18 mos): 79.5%; percentage of patients: new multifocal with Gleason upgrade, entire prostate [2, 12]: 9.1 (p = 0.13) %; % Imp.: new multifocal with Gleason upgrade, entire prostate ([2]; FT 15 mg, <=36 mos): 79.2%; percentage of patients: new multifocal with Gleason upgrade, entire prostate [2, 13]: 20 (p = 0.039) %; % Imp.: new multifocal with Gleason upgrade, entire prostate ([2]; FT 15 mg, <=48 mos): 65%; percentage of patients: new multifocal with Gleason upgrade, entire prostate [2, 14]: 9.7 (p = 0.044) %; % Imp.: new multifocal with Gleason upgrade, entire prostate [2, 15]: 65.1%; percentage of patients: new multifocal with Gleason upgrade, entire prostate [2, 16]: 16.7 (P = 0.027) %; % Imp.: new multifocal with Gleason upgrade, entire prostate [2, 17]: 61.9%; percentage of patients: new multifocal with Gleason upgrade, entire prostate [2, 18]: 35.5%; % Imp.: new multifocal with Gleason upgrade, entire prostate [2, 19]: 37.8%; percentage of patients: new multifocal with increase Gleason primary pattern, entire prostate [3, 8]: 0 (p = 0.17) %; % Imp.: new multifocal with increase Gleason primary pattern, entire prostate ([3]; FT 2.5 mg, <=18 mos): 100%; percentage of patients: new multifocal with increase Gleason primary pattern, entire prostate [3, 9]: 0 (p = 0.074) %; % Imp.: new multifocal with increase Gleason primary pattern, entire prostate ([3]; FT 2.5 mg, <=36 mos): 100%; percentage of patients: new multifocal with increase Gleason primary pattern, entire prostate [3, 10]: 0 (p = 0.009) %; % Imp.: new multifocal with increase Gleason primary pattern, entire prostate ([3]; FT 2.5 mg, <=48 mos): 100%; percentage of patients: new multifocal with increase Gleason primary pattern, entire prostate [3, 11]: 2.9%; % Imp.: new multifocal with increase Gleason primary pattern, entire prostate ([3]; FT 15 mg, <=18 mos): 82.6%; percentage of patients: new multifocal with increase Gleason primary pattern, entire prostate [3, 12]: 4.5%; % Imp.: new multifocal with increase Gleason primary pattern, entire prostate ([3]; FT 15 mg, <=36 mos): 82%; percentage of patients: new multifocal with increase Gleason primary pattern, entire prostate [3, 13]: 13.3%; % Imp.: new multifocal with increase Gleason primary pattern, entire prostate ([3]; FT 15 mg, <=48 mos): 62.7%; percentage of patients: new multifocal with increase Gleason primary pattern, entire prostate [3, 14]: 1.4 (p = 0.049) %; % Imp.: new multifocal with increase Gleason primary pattern, entire prostate [3, 15]: 91.6%; percentage of patients: new multifocal with increase Gleason primary pattern, entire prostate [3, 16]: 2.1 (p = 0.0031) %; % Imp.: new multifocal with increase Gleason primary pattern, entire prostate [3, 17]: 91.6%; percentage of patients: new multifocal with increase Gleason primary pattern, entire prostate [3, 18]: 6.5 (p = 0.012) %; % Imp.: new multifocal with increase Gleason primary pattern, entire prostate [3, 19]: 81.8%; histological changes in injected areas [4]: typical apoptotic changes with positive immunohistochemical staining of markers for apoptosis are found throughout the injected areas; percentage of patients: cancer treatment with new multifocal and an increase in Gleason grade primary pattern, entire prostate [5, 8]: 0 (p = 0.001) %; % Imp.: cancer treatment with new multifocal and an increase in Gleason grade primary pattern, entire prostate ([5]; FT 2.5 mg, <=18 mos): 100%; percentage of patients: cancer treatment with new multifocal and an increase in Gleason grade primary pattern, entire prostate [5, 9]: 0 (p = 0.006) %; % Imp.: cancer treatment with new multifocal and an increase in Gleason grade primary pattern, entire prostate ([5]; FT 2.5 mg, <=36 mos): 100%; percentage of patients: cancer treatment with new multifocal and an increase in Gleason grade primary pattern, entire prostate [5, 10]: 0 (p = 0.0040) %; % Imp.: cancer treatment with new multifocal and an increase in Gleason grade primary pattern, entire prostate ([5]; FT 2.5 mg, <=48 mos): 100%; percentage of patients: cancer treatment with new multifocal and an increase in Gleason grade primary pattern, entire prostate [5, 11]: 2.6 (p = 0.06) %; % Imp.: cancer treatment with new multifocal and an increase in Gleason grade primary pattern, entire prostate ([5]; FT 15 mg, <=18 mos): 83.5%; percentage of patients: cancer treatment with new multifocal and an increase in Gleason grade primary pattern, entire prostate [5, 12]: 3.6 (p = 0.04) %; % Imp.: cancer treatment with new multifocal and an increase in Gleason grade primary pattern, entire prostate ([5]; FT 15 mg, <=36 mos): 84.7%; percentage of patients: cancer treatment with new multifocal and an increase in Gleason grade primary pattern, entire prostate [5, 13]: 4.2 (p = 0.019) %; % Imp.: cancer treatment with new multifocal and an increase in Gleason grade primary pattern, entire prostate ([5]; FT 15 mg, <=48 mos): 86.6%; percentage of patients: cancer treatment with new multifocal and an increase in Gleason grade primary pattern, entire prostate [5, 14]: 1.3 (p = 0.04) %; % Imp.: cancer treatment with new multifocal and an increase in Gleason grade primary pattern, entire prostate [5, 15]: 91.8%; percentage of patients: cancer treatment with new multifocal and an increase in Gleason grade primary pattern, entire prostate [5, 16]: 1.7 (p = 0.002) %; % Imp.: cancer treatment with new multifocal and an increase in Gleason grade primary pattern, entire prostate [5, 17]: 92.8%; percentage of patients: cancer treatment with new multifocal and an increase in Gleason grade primary pattern, entire prostate [5, 18]: 2.1 (p = 0.001) %; % Imp.: cancer treatment with new multifocal and an increase in Gleason grade primary pattern, entire prostate [5, 19]: 93.3%; cellular effects [6]: selectively causes loss of cell membrane integrity, mitochondrial metabolic arrest, depletion of RNA, DNA lysis and aggregation, and cell fragmentation and cell loss; BCL pathways (activation of BIK, HRK, BCL2L10 and BCL3) [6, 20]: stimulates; caspase pathways (activation of caspases 7, 8, and 10, caspase recruitment domains 6, 11, and 14, and DIABLO) [6, 20]: stimulates; tumor necrosis factor pathways (activation of TNF1, TNFSF6, TNFSF8, TNFSF9, CD70 ligands, and TNFRSF19L, TNFRSF25, TRAF2, TRAF3, TRAF4, TRAF6 receptors) [6, 20]: stimulates; percentage of patients: hemi-prostate multifocal cancer with increase in Gleason primary pattern [7, 8]: 0 (p = 0.033) %; % Imp.: hemi-prostate multifocal cancer with increase in Gleason primary pattern ([7]; FT 2.5 mg, <=18 mos): 100%; percentage of patients: hemi-prostate multifocal cancer with increase in Gleason primary pattern [7, 9]: 0 (p = 0.018) %; % Imp.: hemi-prostate multifocal cancer with increase in Gleason primary pattern ([7]; FT 2.5 mg, <=36 mos): 100%; percentage of patients: hemi-prostate multifocal cancer with increase in Gleason primary pattern [7, 10]: 0 (p = 0.037) %; % Imp.: hemi-prostate multifocal cancer with increase in Gleason primary pattern ([7]; FT 2.5 mg, <=48 mos): 100%; percentage of patients: hemi-prostate multifocal cancer with increase in Gleason primary pattern [7, 11]: 2.9%; % Imp.: hemi-prostate multifocal cancer with increase in Gleason primary pattern ([7]; FT 15 mg, <=18 mos): 76.8%; percentage of patients: hemi-prostate multifocal cancer with increase in Gleason primary pattern [7, 12]: 4.5%; % Imp.: hemi-prostate multifocal cancer with increase in Gleason primary pattern ([7]; FT 15 mg, <=36 mos): 79%; percentage of patients: hemi-prostate multifocal cancer with increase in Gleason primary pattern [7, 13]: 6.7%; % Imp.: hemi-prostate multifocal cancer with increase in Gleason primary pattern ([7]; FT 15 mg, <=48 mos): 75.5%; percentage of patients: hemi-prostate multifocal cancer with increase in Gleason primary pattern [7, 14]: 1.4 (p = 0.03) %; % Imp.: hemi-prostate multifocal cancer with increase in Gleason primary pattern [7, 15]: 88.8%; percentage of patients: hemi-prostate multifocal cancer with increase in Gleason primary pattern [7, 16]: 2.2 (p = 0.011) %; % Imp.: hemi-prostate multifocal cancer with increase in Gleason primary pattern [7, 17]: 89.7%; percentage of patients: hemi-prostate multifocal cancer with increase in Gleason primary pattern [7, 18]: 3.4 (p = 0.025) %; % Imp.: hemi-prostate multifocal cancer with increase in Gleason primary pattern [7, 19]: 87.5%
